These results are taken from patent US6440406B1, “Attractant for monitoring and control of adult scarabs” (The United States of America as represented by the …, priority 1997, dated 2002).

Structures are written as SMILES.

What all share (format): in vivo
In one experiment the test system is Phyllophaga crinita. Briefly: Field trap capture, Dallas, TX. The following applies: baited traps. As to the method: (§1) The mixture of all five volatile components, prepared as described in Lopez et al. (U.S. patent application Ser. No. 09/166,655, filed Oct. 5, 1998) was evaluated as an attractant for scarabs. Evaluations using the mixture in traps were conducted at various sites at Dallas, Tex., adjacent to corn or cotton fields in an agricultural area SW of College Station, Tex., and in different habitats at various locations in Mexico. The primary trap used was the Trece Catch Can with a yellow top and a green catch container obtained from Trece, Inc., Salinas, Calif. At College Station only, wire cone traps originally designed to capture noctuid moths (Hartstack et al., Jour. Econ. Entomol., 72:319-322, 1979) were also used in the evaluations. The traps were operated about 1 meter above ground level and were spaced at different distances based on the amount of space available in which to conduct the evaluations. Treatments were assigned to traps in trap lines either randomly or rotated every time the traps were checked to minimize trap location effects. Attractants for evaluation were dispensed primarily from sintered polyethylene to which the attractant was added until saturated. The sintered polyethylene was placed in various plastic containers to facilitate placing on the traps for evaluation. At College Station only, cotton dental wicks were used to dispense the attractants for evaluation by applying the attractants mixed with methylene chloride as a solvent. Traps were checked as appropriate based on the number of numbers of scarabs trapped.
(§2) The volatile components were evaluated individually and in combination for efficacy for capturing scarabs. The evaluations were conducted as described in Example 1 near College Station, Tex., and Dallas, Tex., except that the volatile components were assayed individually as well.
(§3) In the College Station, Tex., data, the numbers represent the frequencies or number of incidents, over the course of the study, where more than one target insect was trapped (male and female, 4 repetitions). The Dallas, Tex., data represents the numbers of males/females captured. Abbreviations for the active agents tested are as follows: Mix M=five component mixture as described in Example 1, MMB=methyl-2-methoxybenzoate, MS=methyl salicylate, PA=phenylacetaldehyde, PE=2-phenylethanol, PEG=Japanese Beetle Lure, and SL=limonene.

In the next experiment the test system is Phyllophaga crassissima. Briefly: Field trap capture, Dallas, TX. The following applies: baited traps. As to the method: as §1, §2, §3
Another experiment concerns Phyllophaga congrua. Briefly: Field trap capture, Dallas, TX. Conditions: baited traps. As to the method:
as §1, §2, §3

In another experiment the test system is Cotinis nitida. Briefly: Field trap capture, College Station, TX. Conditions: number of incidents over the study where more than one target insect was trapped (male and female, 4 repetitions). As to the method:
as §1, §2, §3

The subject of the next experiment is Euphoria sedpulcralis. Briefly: Field trap capture, College Station, TX. The following applies: number of incidents over the study where more than one target insect was trapped (male and female, 4 repetitions). As to the method:
as §1, §2, §3

For the molecule `CC=Cc1ccc(OC)cc1` [Anethol, reference compound], the no. females captured came out at 0 in the experiment with Phyllophaga crinita, 56 with Phyllophaga crassissima and 3 with Phyllophaga congrua. Further, the no. males captured was determined as 14 with Phyllophaga crinita, 79 in the experiment with Phyllophaga crassissima and 0 in the experiment on Phyllophaga congrua. Moreover, the “Frequencies of trapping > 1 beetle” value in the experiment on Cotinis nitida was 1; in the experiment with Euphoria sedpulcralis it was 0.

With `COC(=O)c1ccccc1OC` [MMB, methyl-2-methoxybenzoate], the results for the no. females captured in the experiment on Phyllophaga crinita, in the experiment with Phyllophaga crassissima and in the experiment with Phyllophaga congrua were 7, 11 and 3, respectively. For the same molecule, the no. males captured with Phyllophaga crinita was 8627; with Phyllophaga crassissima it was 16; with Phyllophaga congrua, 0. In addition, the “Frequencies of trapping > 1 beetle” value with Cotinis nitida stood at 1; in the experiment on Euphoria sedpulcralis, 0.

On to `COC(=O)c1ccccc1O` [MS, methyl salicylate], for which the figures for the no. females captured with Phyllophaga crinita, in the experiment on Phyllophaga crassissima and in the experiment with Phyllophaga congrua were 0, 10 and 0, respectively. Further, the no. males captured with Phyllophaga crinita stood at 23; with Phyllophaga crassissima, 6; with Phyllophaga congrua, 4. The “Frequencies of trapping > 1 beetle” value with Cotinis nitida and in the experiment on Euphoria sedpulcralis was 0 in each case.

As to `O=CCc1ccccc1` [PA, phenylacetaldehyde], the no. females captured in the experiment on Phyllophaga crinita is reported as 1; in the experiment with Phyllophaga crassissima it was 3; with Phyllophaga congrua, 1. The results for the no. males captured with Phyllophaga crinita, with Phyllophaga crassissima and with Phyllophaga congrua were 16, 9 and 5, respectively. The “Frequencies of trapping > 1 beetle” value in the experiment on Cotinis nitida was found to be 13; in the experiment with Euphoria sedpulcralis it was 1.

For `OCCc1ccccc1` [PE, 2-phenylethanol], the no. females captured in the experiment with Phyllophaga crinita was determined as 1; in the experiment on Phyllophaga crassissima, 5; in the experiment on Phyllophaga congrua, 2. In addition, the results for the no. males captured in the experiment on Phyllophaga crinita, in the experiment on Phyllophaga crassissima and in the experiment with Phyllophaga congrua were 11, 8 and 5, respectively. The “Frequencies of trapping > 1 beetle” value in the experiment on Cotinis nitida was found to be 2; in the experiment with Euphoria sedpulcralis, 0.

Consider `C=C(C)[C@H]1CC=C(C)CC1` [SL, limonene], for which the no. females captured in the experiment on Phyllophaga crinita is 3; in the experiment with Phyllophaga crassissima it was 3; in the experiment with Phyllophaga congrua, 2. In addition, the no. males captured with Phyllophaga crinita was 32; in the experiment on Phyllophaga crassissima it was 4; in the experiment on Phyllophaga congrua, 1. Moreover, the “Frequencies of trapping > 1 beetle” value in the experiment with Cotinis nitida and with Euphoria sedpulcralis was 0 in each case.
